Test results taken from patent US5225528A, “Cyclic hexapeptide oxytocin antagonists” (priority 1990, dated 1993).
Where two headings read alike, the source gives them in different places. Numbered stars: 1 amine (or outer) side, 2 acyl side, 3 side chain; on linkers, the order of the positions; unused ones are H or OH. Square brackets hold non-standard residues; d marks the D form. Peptide text beside a SMILES is read from it. * marks the point of attachment. X2 = O=C(OCc1ccccc1)N1CCN([*:1])[C@H](C(=O)[*:2])C1; d2Nal = N[C@H](Cc1ccc2ccccc2c1)C(=O)O; dNMeH = CN[C@H](Cc1c[nH]cn1)C(=O)O; Pip(4-aza) = O=C(O)[C@@H]1CNCCN1; dNMeF = CN[C@H](Cc1ccccc1)C(=O)O; X7 = C[N+]12CCC(CC1)C(C(=O)*)C2; Pip = O=C(O)[C@@H]1CCCCN1; dPip = O=C(O)[C@H]1CCCCN1; Orn = NCCC[C@H](N)C(=O)O; Cbz = O=C(OCc1ccccc1)*

How the values were obtained:
uterine OT receptors = molecular target: T1, uterine OT receptors (Rattus norvegicus, UniProt P70536); test: [^3 H]OT binding to uterine OT receptors, crude membrane preparation of uteri from DES-treated rats; details: for IC50: rat uterus membranes, 1 nM [^3 H]OT, read-out: Receptor Binding Results IC50 (nM) [^3 H]OT; for inhibition at 0.1 µM: @ 100 (nM)
T1 construct: from tissue; host or cells: uterus of DES-treated rats, crude membranes
T1 sequence (P70536 1-388): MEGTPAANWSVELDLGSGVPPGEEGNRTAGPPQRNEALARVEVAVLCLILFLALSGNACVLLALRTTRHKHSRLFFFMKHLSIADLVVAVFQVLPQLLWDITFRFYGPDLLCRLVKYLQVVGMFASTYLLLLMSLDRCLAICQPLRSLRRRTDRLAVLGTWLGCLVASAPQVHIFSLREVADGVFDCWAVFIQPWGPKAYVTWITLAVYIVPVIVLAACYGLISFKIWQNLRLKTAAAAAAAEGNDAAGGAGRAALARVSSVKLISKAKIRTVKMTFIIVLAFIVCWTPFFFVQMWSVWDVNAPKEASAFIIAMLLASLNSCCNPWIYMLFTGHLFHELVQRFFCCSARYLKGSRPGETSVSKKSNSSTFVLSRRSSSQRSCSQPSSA
Method: Competition studies were conducted at equilibrium (60 minutes; 22° C.) using 1 nM [^3 H]OT in the following assay buffer: 50 mM Tris-HCl, 5 mM MgCl2, and 0.1% BSA, pH 7.4.

AVP-V1 sites = molecular target: T2, AVP-V1 sites (Rattus norvegicus, UniProt P30560); test: [^3 H]AVP binding to crude membrane preparation of male rat liver (AVP-V1 sites)
T2 construct: crude membrane preparation of male rat liver (AVP-V1 sites); from tissue; host or cells: male rat liver, crude membranes
Method: (§1) Nonspecific binding (5-10% of the total binding) was determined using 10 μM unlabeled AVP, and the binding reaction was terminated by filtration as described above for the [^3 H]OT binding assay.

AVP-V2 sites = molecular target: T3, AVP-V2 sites (Rattus norvegicus, UniProt Q00788); test: [^3 H]AVP binding to crude membrane preparation of male rat kidney medulla (AVP-V2 sites)
T3 construct: male rat liver (AVP-V1 sites) or kidney medulla (AVP-V2 sites); from tissue; host or cells: male rat kidney medulla, crude membranes
Method: as §1

[1] = Receptor Binding Results IC50 (nM) [^3 H]-AVP-V1
[2] = rat kidney medulla membranes, 2 nM [^3 H]AVP, read-out: Receptor Binding Results IC50 (nM) [^3 H]-AVP-V2
[3] = 1 h, read-out: [^3 H]OT: percent inhibition of radioligand at the given concentration
[4] = read-out: Receptor Binding Results IC50 (nM) [^3 H]-AVP-V1
[5] = Receptor Binding Results IC50 (nM) [^3 H]-AVP-V2

T3 sequence (Q00788 whole entry): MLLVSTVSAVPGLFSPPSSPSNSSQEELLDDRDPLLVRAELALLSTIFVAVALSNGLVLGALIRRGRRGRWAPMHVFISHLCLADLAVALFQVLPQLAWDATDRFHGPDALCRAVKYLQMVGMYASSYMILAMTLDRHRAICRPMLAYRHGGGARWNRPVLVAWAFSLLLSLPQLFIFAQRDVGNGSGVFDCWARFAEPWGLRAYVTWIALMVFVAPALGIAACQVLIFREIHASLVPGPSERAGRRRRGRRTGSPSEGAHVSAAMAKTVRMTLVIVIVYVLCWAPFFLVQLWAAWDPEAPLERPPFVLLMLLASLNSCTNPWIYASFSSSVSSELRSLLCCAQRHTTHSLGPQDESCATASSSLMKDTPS
T2 sequence (P30560 whole entry): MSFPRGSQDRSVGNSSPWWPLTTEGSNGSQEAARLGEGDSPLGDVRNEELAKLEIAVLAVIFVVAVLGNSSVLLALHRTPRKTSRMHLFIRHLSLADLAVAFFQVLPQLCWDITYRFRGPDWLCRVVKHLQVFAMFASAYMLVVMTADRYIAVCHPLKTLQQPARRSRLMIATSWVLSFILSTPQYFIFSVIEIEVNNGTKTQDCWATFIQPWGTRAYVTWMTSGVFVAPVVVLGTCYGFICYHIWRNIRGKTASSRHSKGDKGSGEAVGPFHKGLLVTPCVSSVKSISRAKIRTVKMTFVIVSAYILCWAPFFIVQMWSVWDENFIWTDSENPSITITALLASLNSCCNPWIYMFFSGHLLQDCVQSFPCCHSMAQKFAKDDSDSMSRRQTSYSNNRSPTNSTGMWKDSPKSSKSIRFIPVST

Compound | IC50 (uterine OT receptors) | IC50 (AVP-V1 sites; [1]) | IC50 (AVP-V2 sites; [2]) | IC50 (AVP-V1 sites; [4]) | other results
CC[C@H](C)[C@@H]1NC(=O)[C@@H](Cc2c[nH]c3ccccc23)NC(=O)[C@@H]2CCCN2C(=O)[C@@H](Cc2ccccc2)N(C)C(=O)[C@H](CCCCN)NC(=O)[C@H]2CCCCN2C1=O [Example 132, c-[D-Tryptophanyl-L-isoleucyl-D-pipecolyl-L-lysyl-D-(N-methyl)phenylalanyl-L-prolyl]] (cyclo(I[dPip]K[dNMeF]P[dW])) | 65 nM | > 10000 nM | 10000 nM | – | –
CC[C@H](C)[C@@H]1NC(=O)[C@@H](Cc2c[nH]c3ccccc23)NC(=O)[C@@H]2CCCN2C(=O)[C@H](Cc2c[nH]cn2)NC(=O)[C@H](CCCNC(=O)OCc2ccccc2)NC(=O)[C@H]2CCCN2C1=O [Example 95, c-[D-Tryptophanyl-L-isoleucinyl-D-prolyl-L-ornithinyl(Cbz)-D-histidyl-L-prolyl]] (cyclo([dW]I[dP][Orn](Cbz)HP)) | – | > 10000 nM | > 10000 nM | – | inhibition at 0.1 µM (uterine OT receptors; [3]): 36%
CC[C@H](C)[C@@H]1NC(=O)[C@@H](Cc2ccc3ccccc3c2)NC(=O)[C@@H]2CCCN2C(=O)[C@@H](Cc2ccccc2)N(C)C(=O)[C@H](CCCCNC(=O)C2C[N+]3(C)CCC2CC3)NC(=O)[C@H]2CCCCN2C1=O (stereo partly drawn) [Example 151, c-[D-2-Napthylalanyl-L-isoleucyl-D-pipecolyl-L-[N-(1-methyl-quinuclidinium-3-yl-carbonyl)]lysyl-D-(N-methyl)phenylalanyl-L-prolyl]] (cyclo(I[dPip]K(X7)[dNMeF]P[d2Nal])) | 10 nM | – | – | 390 nM | IC50 (AVP-V2 sites): 82 nM
CC[C@H](C)[C@@H]1NC(=O)[C@@H](Cc2c[nH]c3ccccc23)NC(=O)[C@@H]2CCCN2C(=O)[C@@H](Cc2c[nH]cn2)N(C)C(=O)[C@@H]2CCCCN2C(=O)[C@H]2CCCCN2C1=O [Example 19, Cyclo[D-tryptophanyl-L-isoleucyl-D-pipecolyl-L-pipecolyl-D-(N^α methyl)histidyl-L-prolyl]] (cyclo(I[dPip][Pip][dNMeH]P[dW])) | 18 nM | – | 4330 nM | 13700 nM | –
CC[C@H](C)[C@@H]1NC(=O)[C@@H](Cc2c[nH]c3ccccc23)NC(=O)[C@@H]2CCCN2C(=O)[C@@H](Cc2ccccc2)NC(=O)[C@@H]2CN(C(=O)OCc3ccccc3)CCN2C(=O)[C@H]2CCCCN2C1=O [Example 89, c-[D-Tryptophanyl-L-isoleucinyl-D-pipecolyl-L-piperazin-2-yl(4-Cbz)-D-phenylalanyl-L-prolyl]] (cyclo(I[dPip][X2][dF]P[dW])) | – | > 10000 nM | – | – | inhibition at 0.1 µM (uterine OT receptors; [3]): 35%; IC50 (AVP-V2 sites; [5]): > 1000 nM
CC[C@H](C)[C@@H]1NC(=O)C(Cc2c[nH]c3ccc(F)cc23)NC(=O)[C@@H]2CCCN2C(=O)[C@@H](Cc2c[nH]cn2)NC(=O)[C@@H]2CCCCN2C(=O)[C@H]2CCCCN2C1=O (single isomer, unassigned) [157 lower Rf] | – | – | – | 13000 nM | inhibition at 1 µM (uterine OT receptors; 1 h, @ 1,000 (nM), read-out: [^3 H]OT: percent inhibition of radioligand at the given concentration): 6%; IC50 (AVP-V2 sites; read-out: Receptor Binding Results IC50 (nM) [^3 H]-AVP-V2): 26000 nM
CC[C@H](C)[C@@H]1NC(=O)[C@@H](Cc2ccccc2)NC(=O)[C@@H]2CCCN2C(=O)[C@@H](Cc2ccccc2)NC(=O)[C@@H]2CCCCN2C(=O)[C@H]2CCCCN2C1=O [Example 103, c-[D-Phenylalanyl-L-isoleucyl-D-pipecolyl-L-pipecolyl-D-phenylalanyl-L-prolyl]] (cyclo(I[dPip][Pip][dF]P[dF])) | 370 nM | – | > 10000 nM | 5690 nM | –
CC[C@H](C)[C@@H]1NC(=O)[C@@H](Cc2c[nH]c3ccccc23)NC(=O)[C@@H]2CCCN2C(=O)[C@@H](Cc2c[nH]c3ccccc23)NC(=O)[C@@H]2CNCCN2C(=O)[C@H]2CCCCN2C1=O [Example 88, c-[D-Trytophanyl-L-isoleucinyl-D-pipecolyl-L-piperazin-2-yl-D-tryptophanyl-L-prolyl]] (cyclo(I[dPip][Pip(4-aza)][dW]P[dW])) | 18 nM | – | – | 5780 nM | IC50 (AVP-V2 sites; [5]): 1000 nM
